Values joined by “and” are separate entries in the source; they are usually repeats but may differ in a detail not shown here. Equal values may be shown once.
What was measured:
Format in all cases: cell-based
[1] = test system: mouse fibroblasts L929 [ACC 2]; test: MTT cytotoxicity assay, L929; conditions: MTT, tested 37 μg/mL–0.63 ng/mL, read-out: IC50
Description: (§1) Cytotoxic effects were evaluated on human endocervical adenocarcinoma KB-3-1 [ACC 158] cells and mouse fibroblasts L929 [ACC 2] upon treatment with Rub C, W, and Rut A and B within the concentration range of 37 μg/mL–0.63 ng/mL. The half-maximum inhibitory concentrations (IC50) were determined by standard MTT assays as reported previously (see the Supplementary Material for detailed information). The IC50 values of Rub A and Z have currently been reported. […]
(§2) KB-3-1 (ACC 158) cervix carcinoma as well as L929 (ACC 2) mouse fibroblasts were cultured under standard cell culture conditions (37 °C, 5% CO2, 95% humidified atmosphere). The cells were maintained in high glucose DMEM containing 10% fetal bovine serum and 100 U/mL penicillin and streptomycin (Gibco, Thermo Fisher Scientific, Waltham, USA). Cell lines were serially passaged after trypsinization, using 0.05% trypsin / 0.02% EDTA solution. The cultures were routinely monitored for potential contamination, and only mycoplasma free cultures were used. The test compounds were investigated for their anti-proliferative effect on cell lines, using the 3-(4,5-dimethylthiazol-2-yl)-2,5-diphenyltetrazolium bromide (MTT) based cell viability assay. Cells were seeded in 96 well microtiter plates (Sarstedt, Germany) with a cell density of 0.05 * 10^6 cells per mL and 100 μL per well and were incubated for 24 h. […]
(§3) Absorbances at 570 nm and 630 nm were measured with a plate reader (Tecan, Männedorf, canton of Zürich, Switzerland). Background absorbance (630 nm) was subtracted from the formazan signal (570 nm). The resulting absorbance is directly proportional to the amount of viable cells. The control was normalized to 100% viable cells, and the viability of cells treated with the test compounds was calculated accordingly. IC50 values were calculated based on a sigmoidal fit model using GraphPad Prism. Means and SD were calculated from at least four independent experiments. […]

[2] = test system: Staphylococcus aureus (DSM 1104) biofilm; test: Crystal violet biofilm inhibition assay, S. aureus; conditions: for inhibitory effects against the biofilm formation of S. aureus: CV assay; for inhibition at 2 µg/mL / inhibition at 3.9 µg/mL / inhibition at 7.8 µg/mL / inhibition at 15.6 µg/mL / inhibition at 31.3 µg/mL / inhibition at 62.5 µg/mL / inhibition at 125 µg/mL / inhibition at 250 µg/mL: Staphylococcus aureus, DSM1104, read-out: inhibition of S. aureus biofilm formation compared to solvent control (= 0%)
Description: Selected azaphilones Rub C and W, Rut A and B were tested against the formation of biofilms in Staphylococcus aureus (DSM 1104). S. aureus DSM 1104 from a −20 °C stock was precultured in 25 mL CASO (casein-peptone soymeal-peptone) medium in a 250 mL flask at 37 °C with 100 rpm for 20 h. The OD600 of the culture solution was adjusted to 0.001 McFarland standard and incubated in 96-well microtiter plates (TPP tissue culture ref.no 92196, Switzerland) for 18 h at 37 °C with 150 μL of serially diluted test […]
compounds (250–2 μg/mL) in CASO with 4% glucose broth. The inhibition of biofilm formation was evaluated by staining with 150 μL of 0.1% crystal violet (CV; Thermo Fisher) following previously established protocols. In the next step, the supernatant of the 96-well plate was discarded and the wells were rinsed once with PBS buffer. The remaining biofilms were stained at room temperature for 15 min, rinsed three times with PBS buffer, and finally dissolved in 150 μL ethanol (95%). The absorbance of the resulting solution at 530 nm was quantified using a plate reader (Synergy 2, BioTek). Methanol (2.5%) and microporenic acid A (MAA) (250–2 μg/mL) were used as negative and positive controls. Standard deviations (SD) of two repeats with duplicates were 10% or less. […]
μg/mL) were used as negative control and positive control, respectively. The assay was conducted for […]
(§4) Table S2: Selected azaphilones were tested against the formation of biofilm of S. aureus, P. aeruginosa as well as C. auris and dispersal effect on preformed biofilm of S. aureus compared to solvent control (= 0%), respectively. SDs are shown as ±SD.
(§5) Compounds Strains Concentrations [µg/mL] […]

[3] = test system: Pseudomonas aeruginosa (PA 14) DSM 19882 biofilm; test: Crystal violet biofilm inhibition assay, P. aeruginosa; conditions: Pseudomonas aeruginosa, DSM19882, assay conducted once, read-out: inhibition of P. aeruginosa biofilm formation compared to solvent control (= 0%)
Description: Selected azaphilones Rub C and W, Rut A and B were tested against the formation of biofilms in Pseudomonas aeruginosa (PA 14) DSM 19882. Bacterial strain was precultured in 25 mL LB medium (Luria - Bertani Broth) with a 250 mL flask at 37 °C with shaking 100 rpm overnight. The turbidity of the baterial solution was measured and diluted to match the turbidity of a 0.1 McFarland standard in M63 medium, which is supplemented with magnesium sulfate, glucose and casamino acids as previously described. The compounds were added into 150 μL bacterial solution at the concentration (250–2 μg/mL) then the solution was added in U-bottom 96 well plate (Falcon ref.no 351177, Thermo Fisher Scientific). The plates were incubated at 37 °C at 150 rpm for 24 h and biofilms were established at the air liquid interface. The plates were rinsed once by using PBS buffer, the biofilms were stained by 150 μL 0.1% CV at room temperature for 15 min and then rinsed two times by using PBS buffer. The absorbance was quantified with the plate reader (Synergy 2, BioTek) at 550 nm using ethanol (95%). Methanol (2.5 %) and myxovalargin A (250 –2 μg/mL) were used as negative control and positive control, respectively. The assay was conducted for […]
as §4, §5

[4] = test system: human endocervical adenocarcinoma KB-3-1 [ACC 158] cells; test: MTT cytotoxicity assay, KB-3-1; conditions: KB-3-1, MTT, tested 37 μg/mL–0.63 ng/mL, read-out: IC50
Description: as §1, §2, §3

[5] = test system: murine fibroblasts (L929) and human endocervical adenocarcinoma cells (KB-3-1); test: MTT cytotoxicity, range stated over both cell lines; conditions: range over Rut A and Rut B and over L929 and KB-3-1
Description: as §1
KB-3-1 (ACC 158) cervix carcinoma as well as L929 (ACC 2) mouse fibroblasts were cultured under standard cell culture conditions (37 °C, 5% CO2, 95% humidified atmosphere). […] The cultures were routinely monitored for potential contamination, and only mycoplasma free cultures were used. […]
as §3

SMILES | IC50 [1] [nM] | inhibitory effects against the biofilm formation of S. aureus [2] | inhibition at 2 µg/mL [2] [%] | inhibition at 3.9 µg/mL [2] [%] | inhibition at 7.8 µg/mL [2] [%] | inhibition at 15.6 µg/mL [2] [%] | inhibition at 31.3 µg/mL [2] [%] | inhibition at 62.5 µg/mL [2] [%] | inhibition at 125 µg/mL [2] [%] | inhibition at 250 µg/mL [2] [%] | inhibition at 2 µg/mL [3] [%] | inhibition at 3.9 µg/mL [3] [%] | inhibition at 7.8 µg/mL [3] [%] | inhibition at 15.6 µg/mL [3] [%] | inhibition at 31.3 µg/mL [3] [%] | inhibition at 62.5 µg/mL [3] [%] | inhibition at 125 µg/mL [3] [%] | inhibition at 250 µg/mL [3] [%] | IC50 [4] [nM] | IC50 [5]
CC(=O)OC/C=C/C1=CC2=C(CO1)C(=O)[C@@](C)(OC(=O)c1c(C)cc(O)cc1O)C(=O)/C2=C\C=C\C1=CC2=C(CO1)C(=O)[C@@](C)(O)[C@@H](OC(=O)c1c(C)cc(O)cc1O)C2 [Rut A, rutilin A] | 1200 | moderate inhibitory effects | < 20 | < 20 | < 20 | 21 ± 2 | 51 ± 10 | 51 ± 10 | 55 ± 9 | 60 ± 6 | < 20 | < 20 | < 20 | < 20 | < 20 | < 20 | < 20 | < 20 | 1100 | 1.1 µM to 2.2 µM and 0.9 µg/mL to 1.8 µg/mL
CC(=O)OC/C=C/C1=CC2=C(CO1)C(=O)[C@@](C)(OC(=O)c1c(C)cc(O)cc1O)C(=O)/C2=C\C=C\C1=CC2=C(CO1)C(=O)[C@@](C)(OC(=O)c1c(C)cc(O)cc1O)[C@@H](O)C2 [Rut B, rutilin B] | 2200 | moderate inhibitory effects | 86 ± 2 | 88 ± 1 | 88 ± 1 | 87 ± 2 | 86 ± 2 | 86 ± 2 | 85 ± 2 | 84 ± 2 | < 20 | < 20 | < 20 | < 20 | < 20 | < 20 | < 20 | < 20 | 1500 | 1.1 µM to 2.2 µM and 0.9 µg/mL to 1.8 µg/mL

From PMC10381533, “Inhibitory Effects of the Fungal Pigment Rubiginosin C on Hyphal and Biofilm Formation in Candida albicans and Candida auris” (Journal of Fungi, 2023)
